Test results taken from the kinase profiling compilation of Christmann-Franck et al. (2016).

Legend:
[1] = molecular target: TLK1 (human) (UniProt Q9UKI8); assay: radiometric filter-binding kinase assay
[2] = molecular target: TBK1 (human) (UniProt Q9UHD2); assay: radiometric filter-binding kinase assay
[3] = system: ROCK2 (rat); assay: radiometric filter-binding kinase assay; settings: accession and sequence are those of the human protein
[4] = molecular target: ABL1 (human) (UniProt P00519); assay: radiometric filter-binding kinase assay
ABL1 (human), sequence (P00519 whole entry, looked up): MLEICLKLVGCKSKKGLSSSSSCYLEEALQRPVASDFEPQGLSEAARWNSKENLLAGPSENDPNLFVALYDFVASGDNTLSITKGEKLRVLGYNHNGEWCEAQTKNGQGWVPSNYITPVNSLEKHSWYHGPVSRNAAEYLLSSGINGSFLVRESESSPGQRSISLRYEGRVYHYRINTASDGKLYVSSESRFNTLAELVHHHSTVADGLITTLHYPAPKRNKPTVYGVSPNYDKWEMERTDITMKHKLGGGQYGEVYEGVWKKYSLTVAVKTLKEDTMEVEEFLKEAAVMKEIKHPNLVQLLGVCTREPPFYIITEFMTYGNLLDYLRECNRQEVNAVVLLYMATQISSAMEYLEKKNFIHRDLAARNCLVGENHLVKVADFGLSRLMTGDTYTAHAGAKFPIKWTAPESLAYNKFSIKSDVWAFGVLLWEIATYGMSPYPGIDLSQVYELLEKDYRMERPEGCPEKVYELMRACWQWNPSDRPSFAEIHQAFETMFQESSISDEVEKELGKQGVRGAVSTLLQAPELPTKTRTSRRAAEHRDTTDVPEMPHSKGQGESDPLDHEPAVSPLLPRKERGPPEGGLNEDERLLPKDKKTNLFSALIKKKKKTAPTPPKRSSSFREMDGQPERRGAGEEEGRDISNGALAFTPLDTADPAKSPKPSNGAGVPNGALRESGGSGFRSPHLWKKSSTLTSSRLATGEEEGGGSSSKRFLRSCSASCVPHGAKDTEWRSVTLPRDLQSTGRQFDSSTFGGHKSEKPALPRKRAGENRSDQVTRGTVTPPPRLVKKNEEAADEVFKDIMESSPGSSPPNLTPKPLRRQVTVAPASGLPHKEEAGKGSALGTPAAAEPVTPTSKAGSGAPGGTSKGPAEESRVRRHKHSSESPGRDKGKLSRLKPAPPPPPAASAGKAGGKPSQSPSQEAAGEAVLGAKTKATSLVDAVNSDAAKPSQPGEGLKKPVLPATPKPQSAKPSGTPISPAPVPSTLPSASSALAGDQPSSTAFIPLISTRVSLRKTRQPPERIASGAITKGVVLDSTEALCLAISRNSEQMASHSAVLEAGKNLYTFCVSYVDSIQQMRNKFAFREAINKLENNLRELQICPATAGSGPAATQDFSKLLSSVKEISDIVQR

[5] = molecular target: AURKA (human) (UniProt O14965); assay: radiometric filter-binding kinase assay
AURKA (human), sequence (O14965 whole entry, looked up): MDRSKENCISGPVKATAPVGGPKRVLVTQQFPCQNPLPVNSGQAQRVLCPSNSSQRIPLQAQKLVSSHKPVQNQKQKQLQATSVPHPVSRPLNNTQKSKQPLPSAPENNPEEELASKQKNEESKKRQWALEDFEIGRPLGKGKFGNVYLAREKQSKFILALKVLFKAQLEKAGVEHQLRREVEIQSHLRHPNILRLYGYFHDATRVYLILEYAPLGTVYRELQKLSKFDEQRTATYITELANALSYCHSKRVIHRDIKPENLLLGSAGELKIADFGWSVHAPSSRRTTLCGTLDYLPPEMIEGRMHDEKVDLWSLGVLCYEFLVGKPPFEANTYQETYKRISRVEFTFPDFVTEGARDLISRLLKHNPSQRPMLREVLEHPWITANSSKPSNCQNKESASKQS

[6] = molecular target: SRC (human) (UniProt P12931); assay: KINOMEscan competition binding; settings: compound 1.0 µM
[7] = molecular target: PHKG1 (human) (UniProt Q16816); assay: KINOMEscan competition binding; settings: compound 1.0 µM
[8] = molecular target: TAOK2 (human) (UniProt Q9UL54); assay: KINOMEscan competition binding; settings: compound 1.0 µM
[9] = molecular target: ULK2 (human) (UniProt Q8IYT8); assay: KINOMEscan competition binding; settings: compound 1.0 µM
ULK2 (human), sequence (Q8IYT8 whole entry, looked up): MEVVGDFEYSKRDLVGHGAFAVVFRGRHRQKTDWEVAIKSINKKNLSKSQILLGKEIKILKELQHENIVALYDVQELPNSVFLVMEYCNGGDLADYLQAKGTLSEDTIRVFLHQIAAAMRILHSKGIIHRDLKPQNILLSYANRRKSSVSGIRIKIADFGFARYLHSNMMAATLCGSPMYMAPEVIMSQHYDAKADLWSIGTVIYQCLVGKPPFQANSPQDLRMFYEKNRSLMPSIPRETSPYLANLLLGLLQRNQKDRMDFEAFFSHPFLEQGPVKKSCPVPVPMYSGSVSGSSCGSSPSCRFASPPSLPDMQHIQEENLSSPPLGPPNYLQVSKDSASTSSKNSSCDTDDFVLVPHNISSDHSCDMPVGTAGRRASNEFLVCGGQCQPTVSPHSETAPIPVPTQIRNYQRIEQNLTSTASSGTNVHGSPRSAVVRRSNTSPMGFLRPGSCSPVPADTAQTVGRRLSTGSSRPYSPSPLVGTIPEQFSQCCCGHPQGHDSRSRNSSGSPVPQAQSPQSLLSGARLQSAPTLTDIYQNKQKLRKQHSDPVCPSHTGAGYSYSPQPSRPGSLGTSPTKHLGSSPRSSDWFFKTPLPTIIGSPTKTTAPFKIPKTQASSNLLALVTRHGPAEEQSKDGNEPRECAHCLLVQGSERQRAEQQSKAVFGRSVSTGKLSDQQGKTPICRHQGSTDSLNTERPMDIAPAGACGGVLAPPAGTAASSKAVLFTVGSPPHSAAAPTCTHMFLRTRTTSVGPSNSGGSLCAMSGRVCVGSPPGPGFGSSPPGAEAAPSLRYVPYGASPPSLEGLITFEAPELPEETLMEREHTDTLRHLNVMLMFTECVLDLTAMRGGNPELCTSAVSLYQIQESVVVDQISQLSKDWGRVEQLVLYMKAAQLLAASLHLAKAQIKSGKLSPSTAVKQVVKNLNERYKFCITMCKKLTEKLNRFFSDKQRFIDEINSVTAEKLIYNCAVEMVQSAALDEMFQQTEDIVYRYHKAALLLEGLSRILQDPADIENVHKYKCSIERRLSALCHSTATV

[10] = molecular target: MYLK (human) (UniProt Q15746); assay: KINOMEscan competition binding; settings: compound 1.0 µM
[11] = molecular target: MAP3K7 (human) (UniProt O43318); assay: KINOMEscan competition binding; settings: compound 1.0 µM
[12] = molecular target: MAPK8 (human) (UniProt P45983); assay: KINOMEscan competition binding; settings: compound 1.0 µM
[13] = molecular target: TAOK1 (human) (UniProt Q7L7X3); assay: KINOMEscan competition binding; settings: compound 1.0 µM
[14] = molecular target: DCLK2 (human) (UniProt Q8N568); assay: KINOMEscan competition binding; settings: compound 1.0 µM
[15] = molecular target: STK35 (human) (UniProt Q8TDR2); assay: KINOMEscan competition binding; settings: compound 1.0 µM
STK35 (human), sequence (Q8TDR2 whole entry, looked up): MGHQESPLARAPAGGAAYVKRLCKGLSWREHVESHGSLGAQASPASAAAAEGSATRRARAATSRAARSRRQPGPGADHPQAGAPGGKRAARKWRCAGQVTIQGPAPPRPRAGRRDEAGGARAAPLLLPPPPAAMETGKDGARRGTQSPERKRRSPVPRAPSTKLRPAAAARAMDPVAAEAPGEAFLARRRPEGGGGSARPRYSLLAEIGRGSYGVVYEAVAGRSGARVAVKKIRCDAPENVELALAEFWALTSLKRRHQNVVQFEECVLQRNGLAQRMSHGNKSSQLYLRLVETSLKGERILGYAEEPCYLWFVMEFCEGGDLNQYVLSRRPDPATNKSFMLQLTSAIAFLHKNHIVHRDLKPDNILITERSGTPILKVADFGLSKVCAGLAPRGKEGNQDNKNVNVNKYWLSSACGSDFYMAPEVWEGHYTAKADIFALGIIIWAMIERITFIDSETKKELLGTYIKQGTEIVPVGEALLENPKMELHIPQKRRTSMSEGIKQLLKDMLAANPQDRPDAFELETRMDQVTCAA

[16] = molecular target: STK32C (human) (UniProt Q86UX6); assay: KINOMEscan competition binding; settings: compound 1.0 µM
[17] = molecular target: WNK1 (human) (UniProt Q9H4A3); assay: KINOMEscan competition binding; settings: compound 1.0 µM
[18] = molecular target: RPS6KA4 KD1 (human) (UniProt O75676); assay: KINOMEscan competition binding; settings: compound 1.0 µM
[19] = molecular target: LYN (human) (UniProt P07948); assay: KINOMEscan competition binding; settings: compound 1.0 µM
[20] = molecular target: MAP3K15 (human) (UniProt Q6ZN16); assay: KINOMEscan competition binding; settings: compound 1.0 µM
[21] = molecular target: PIM3 (human) (UniProt Q86V86); assay: KINOMEscan competition binding; settings: compound 1.0 µM
[22] = molecular target: ERN1 (human) (UniProt O75460); assay: KINOMEscan competition binding; settings: compound 1.0 µM
[23] = molecular target: MYO3B (human) (UniProt Q8WXR4); assay: KINOMEscan competition binding; settings: compound 1.0 µM
[24] = molecular target: CSNK1A1L (human) (UniProt Q8N752); assay: KINOMEscan competition binding; settings: compound 1.0 µM
CSNK1A1L (human), sequence (Q8N752 whole entry, looked up): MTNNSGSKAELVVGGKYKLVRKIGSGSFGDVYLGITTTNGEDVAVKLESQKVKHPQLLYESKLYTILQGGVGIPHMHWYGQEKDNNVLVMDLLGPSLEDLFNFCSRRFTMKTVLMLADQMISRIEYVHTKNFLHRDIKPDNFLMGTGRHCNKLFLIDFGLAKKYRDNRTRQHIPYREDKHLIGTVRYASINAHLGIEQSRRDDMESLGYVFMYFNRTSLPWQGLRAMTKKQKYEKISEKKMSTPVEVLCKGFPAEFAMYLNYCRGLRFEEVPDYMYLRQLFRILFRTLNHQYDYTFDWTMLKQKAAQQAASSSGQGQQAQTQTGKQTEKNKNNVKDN

[25] = molecular target: SIK3 (human) (UniProt Q9Y2K2); assay: KINOMEscan competition binding; settings: compound 1.0 µM
[26] = system: EGFR (human), P00533 [L861Q]; assay: KINOMEscan competition binding; settings: compound 1.0 µM
[27] = molecular target: MAP2K3 (human) (UniProt P46734); assay: KINOMEscan competition binding; settings: compound 1.0 µM
[28] = molecular target: TBK1 (human) (UniProt Q9UHD2); assay: KINOMEscan competition binding; settings: compound 1.0 µM
[29] = molecular target: SLK (human) (UniProt Q9H2G2); assay: KINOMEscan competition binding; settings: compound 1.0 µM
[30] = molecular target: CHEK2 (human) (UniProt O96017); assay: KINOMEscan competition binding; settings: compound 1.0 µM
[31] = molecular target: MAPK7 (human) (UniProt Q13164); assay: KINOMEscan competition binding; settings: compound 1.0 µM
[32] = molecular target: SRPK1 (human) (UniProt Q96SB4); assay: KINOMEscan competition binding; settings: compound 1.0 µM
[33] = molecular target: TSSK1B (human) (UniProt Q9BXA7); assay: KINOMEscan competition binding; settings: compound 1.0 µM
[34] = molecular target: CIT (human) (UniProt O14578); assay: KINOMEscan competition binding; settings: compound 1.0 µM
[35] = system: FLT3 (human), P36888 [K663Q]; assay: KINOMEscan competition binding; settings: compound 1.0 µM
[36] = molecular target: MAP4K5 (human) (UniProt Q9Y4K4); assay: KINOMEscan competition binding; settings: compound 1.0 µM
[37] = molecular target: CDK3 (human) (UniProt Q00526); assay: KINOMEscan competition binding; settings: compound 1.0 µM
[38] = molecular target: CSNK1G3 (human) (UniProt Q9Y6M4); assay: KINOMEscan competition binding; settings: compound 1.0 µM

TBK1 (human), sequence (Q9UHD2 whole entry, looked up): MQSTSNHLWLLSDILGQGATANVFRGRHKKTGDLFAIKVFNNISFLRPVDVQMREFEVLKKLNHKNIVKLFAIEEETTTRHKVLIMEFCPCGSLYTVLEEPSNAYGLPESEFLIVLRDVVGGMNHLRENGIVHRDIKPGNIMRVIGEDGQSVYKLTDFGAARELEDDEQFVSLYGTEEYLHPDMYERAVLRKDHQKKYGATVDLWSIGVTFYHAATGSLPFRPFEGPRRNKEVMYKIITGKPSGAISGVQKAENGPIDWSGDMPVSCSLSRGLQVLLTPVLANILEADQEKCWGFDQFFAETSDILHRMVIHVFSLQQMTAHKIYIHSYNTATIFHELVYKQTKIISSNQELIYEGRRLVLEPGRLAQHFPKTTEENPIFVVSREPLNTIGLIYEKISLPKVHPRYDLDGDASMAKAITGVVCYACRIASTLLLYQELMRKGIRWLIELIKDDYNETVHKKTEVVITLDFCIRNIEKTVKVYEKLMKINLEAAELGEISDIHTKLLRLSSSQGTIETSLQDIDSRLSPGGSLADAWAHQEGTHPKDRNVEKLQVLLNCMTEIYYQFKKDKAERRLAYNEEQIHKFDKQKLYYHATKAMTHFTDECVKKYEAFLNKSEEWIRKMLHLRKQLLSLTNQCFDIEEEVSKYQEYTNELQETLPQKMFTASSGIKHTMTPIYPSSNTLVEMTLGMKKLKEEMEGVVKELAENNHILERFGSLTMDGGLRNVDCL
TLK1 (human), sequence (Q9UKI8 whole entry, looked up): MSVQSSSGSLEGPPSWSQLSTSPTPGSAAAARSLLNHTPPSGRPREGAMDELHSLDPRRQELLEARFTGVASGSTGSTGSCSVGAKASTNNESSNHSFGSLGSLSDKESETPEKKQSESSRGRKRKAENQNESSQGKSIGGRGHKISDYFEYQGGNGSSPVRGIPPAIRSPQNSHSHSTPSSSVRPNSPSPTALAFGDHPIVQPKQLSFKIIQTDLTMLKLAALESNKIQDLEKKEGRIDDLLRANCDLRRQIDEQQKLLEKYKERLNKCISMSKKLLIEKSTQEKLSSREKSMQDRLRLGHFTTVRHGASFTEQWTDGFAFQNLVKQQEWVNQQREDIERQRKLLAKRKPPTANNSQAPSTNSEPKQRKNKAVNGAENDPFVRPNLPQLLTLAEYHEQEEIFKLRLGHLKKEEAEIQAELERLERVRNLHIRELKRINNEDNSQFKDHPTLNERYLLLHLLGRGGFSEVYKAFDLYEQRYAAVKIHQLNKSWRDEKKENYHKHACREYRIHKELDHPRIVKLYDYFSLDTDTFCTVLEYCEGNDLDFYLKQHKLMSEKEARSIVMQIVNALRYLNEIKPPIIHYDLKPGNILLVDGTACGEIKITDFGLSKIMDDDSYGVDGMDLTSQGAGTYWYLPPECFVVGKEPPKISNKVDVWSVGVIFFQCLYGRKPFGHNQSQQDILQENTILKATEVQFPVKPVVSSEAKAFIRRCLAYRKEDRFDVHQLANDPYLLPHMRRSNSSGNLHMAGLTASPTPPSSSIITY

Compound `CNc1nc(Nc2ccc(C(=O)N3CCOCC3)cc2OC)ncc1Cl` has a residual activity ([1]; compound 1.0 µM) of 61%, a residual activity ([1]; compound 10.0 µM) of 100% and a residual activity ([2]; compound 1.0 µM) of 86%. It also gave a residual activity ([2]; compound 10.0 µM) of 42%, a residual activity ([3]; compound 1.0 µM) of 87% and a residual activity ([3]; compound 10.0 µM) of 71%. It also gave a residual activity ([4]; compound 1.0 µM) of 84%, a residual activity ([4]; compound 10.0 µM) of 86% and a residual activity ([5]; compound 1.0 µM) of 56%. For the same compound, the residual activity ([5]; compound 10.0 µM) was 45%, the kinase still bound, per cent of control [6] was 100% and the kinase still bound, per cent of control [7] was 76%. The kinase still bound, per cent of control [8] was 88%, the kinase still bound, per cent of control [9] was 85% and the residual activity [10] was 75%. For the same compound, the kinase still bound, per cent of control [11] was 79%, the kinase still bound, per cent of control [12] was 44% and the kinase still bound, per cent of control [13] was 99%. For the same compound, the kinase still bound, per cent of control [14] was 100%, the kinase still bound, per cent of control [15] was 100% and the kinase still bound, per cent of control [16] was 100%. The kinase still bound, per cent of control [17] was 100%, the kinase still bound, per cent of control [18] was 89% and the kinase still bound, per cent of control [19] was 100%. For the same compound, the kinase still bound, per cent of control [20] was 97%, the kinase still bound, per cent of control [21] was 100% and the kinase still bound, per cent of control [22] was 88%. For the same compound, the kinase still bound, per cent of control [23] was 100%, the kinase still bound, per cent of control [24] was 94% and the kinase still bound, per cent of control [25] was 100%. For the same compound, the kinase still bound, per cent of control [26] was 100%, the kinase still bound, per cent of control [27] was 93% and the kinase still bound, per cent of control [28] was 100%. The kinase still bound, per cent of control [29] was 100%, the kinase still bound, per cent of control [30] was 26% and the kinase still bound, per cent of control [31] was 98%. For the same compound, the kinase still bound, per cent of control [32] was 81%, the kinase still bound, per cent of control [33] was 100% and the kinase still bound, per cent of control [34] was 100%. For the same compound, the kinase still bound, per cent of control [35] was 53%, the kinase still bound, per cent of control [36] was 73% and the residual activity [37] was 100%. For the same compound, the kinase still bound, per cent of control [38] was 100%.
